Measured values as given in patent US20190240176A1, “METHODS OF TREATMENT FOR MYELOID LEUKEMIA” (The University of Georgia Research Foundation, Inc., priority 2016, published 2019).

Legend:
primary human AML cells = test: Colony formation assay, primary de novo AML cells; format: cell-based; conditions: FIG. 3G
Method: (§1) Patient blood samples were obtained at the Institute of Medical Science, the University of Tokyo (IMSUT) Hospital with written informed consent according to the procedures approved by the Institutional Review Board. Mononuclear cells from the subjects were viably frozen and stored in liquid nitrogen. For in vitro colony formation with BCAT1 knockdown, primary hCD34^+ cells sorted from patient bone marrow samples were cultured in IMDM supplemented with 10% FBS, 100 IU/ml penicillin and 100 μg/ml streptomycin, 55 μM 2-mercaptoethanol, SCF, IL-3, IL-6, FLT3L and TPO. After 24 h of culture, the cells were transduced with lentiviral shRNA (cloned in FG12-UbiC-GFP), and the GFP-positive infected cells were sorted at 48 h, and 5,000-50,000 cells were plated in complete methylcellulose medium (Methocult H4435, StemCell Technologies). For the colony forming assays with Gbp, sorted hCD34^+ cells from the primary patient specimens were cultured in complete methylcellulose medium with the indicated concentrations of Gbp. Colonies were scored on days 9 to 14.

[1] = system: primary Lin- BC-CML cells; test: Colony formation assay, primary Lin- BC-CML cells; format: cell-based; conditions: primary mouse Lin- BC-CML cells plated with Gbp; FIG. 2B
Method: (§2) The human BC-CML cell line K562, the human acute leukemia cell lines MV4-11 and U937 were maintained in Roswell Park Memorial Institute 1640 medium (RPMI-1640) with 10% FBS, 100 IU/ml penicillin and 100 μg/ml streptomycin. The human acute promyelocytic leukemia cell line HL60 was maintained in RPMI supplemented with 20% FBS. All human cell lines were obtained from ATCC, and cell line authentication testing was performed by ATCC-standardized STR analysis to verify their identity in July 2016. For the colony forming assays, the cells were transduced with lentiviral shRNA and plated in triplicate in 1.2% methylcellulose medium (R&D systems) supplemented with 100 IU/ml penicillin and 100 μg/ml streptomycin, 10% FBS. Where indicated, either BCAAs (L-Leucine, L-Valine, L-Isoleucine, 4 mM each, Sigma-Aldrich), L-alanyl-L-glutamine (4 mM, GlutaMax™, Life Technologies), rapamycin (50 nM, Tocris) or gabapentin (Gbp; Tokyo Chemical Industry Co.) was added to the medium. Gbp was freshly dissolved in PBS before use. Colonies were scored on days 9 to 14. […] Colonies were scored on days 7 to 10.

[2] = system: primary human BC-CML cells; test: Colony formation assay, patient-derived primary BC-CML cells; format: cell-based; conditions: patient-derived primary leukemia cells; FIGS. 3D-E, 11E-F
Method: as §1

BCAT2 = biological target: T1, BCAT2 (Homo sapiens, UniProt O15382); conditions: literature reference 7; cited from earlier work
T1 sequence (O15382 28-392): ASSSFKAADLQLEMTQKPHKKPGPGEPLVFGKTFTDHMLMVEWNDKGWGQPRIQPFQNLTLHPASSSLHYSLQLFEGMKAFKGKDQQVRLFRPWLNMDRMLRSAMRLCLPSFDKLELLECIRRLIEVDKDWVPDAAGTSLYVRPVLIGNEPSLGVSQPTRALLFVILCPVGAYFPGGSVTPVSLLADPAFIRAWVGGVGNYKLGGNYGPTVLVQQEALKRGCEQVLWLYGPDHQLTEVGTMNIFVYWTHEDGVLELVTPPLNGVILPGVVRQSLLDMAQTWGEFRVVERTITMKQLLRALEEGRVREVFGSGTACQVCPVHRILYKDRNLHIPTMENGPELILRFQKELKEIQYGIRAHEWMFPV

[3] = system: S6 kinase (pS6K), a downstream target of mTORC1 kinase; test: Western blotting for phospho-S6 kinase in K562 cells; format: cell-based, human; conditions: shBCAT1-d or 20 mM Gbp for 24 h, FIG. 3J
[4] = system: intracellular BCAAs in K562 cells; test: Intracellular amino acid quantification in K562 cells; format: cell-based, human; conditions: compared with the controls, FIGS. 12A-B
Method: Leukemia cells or peripheral blood samples drawn from mice bearing myeloid leukemia were used for amino acid and keto acid analysis by high-performance liquid chromatography (HPLC)-fluorescence detection, as described^32-34. In brief, two hundred thousand live leukemia cells per sample were sorted and washed twice with ice-cold PBS to remove media components prior to amino acid extraction. The blood plasma was prepared by centrifugation of the peripheral blood samples at 2,000×g at 4° C. for 10 min. […] For amino acid quantification, the dried samples were treated with the amine-reactive 4-fluoro-7-nitro-2,1,3-benzoxadizole (NBD-F) to derivatize the amino acids. […] The gradient conditions were as follows: t=0 min, 10% B; t=20 min, 50% B; and t=30 min, 100% B. For NBD-Asn, Ser, Thr, Gln and Phe analysis, 25 mM citrate buffer containing 25 mM sodium perchlorate (pH 4.4) was used as the mobile phase A. NBD-amino acids were detected with excitation and emission wavelengths of 470 and 530 nm, respectively. For keto acid quantification, dried samples were treated with o-phenylenediamine (OPD) to derivatize alpha-keto acids, followed by liquid-liquid extraction with ethyl acetate. […] The fluorescence detection was carried out at the emission wavelength of 410 nm with excitation of 350 nm.

BCAT1 = biological target: T2, BCAT1 (Homo sapiens, UniProt P54687); conditions: literature reference 7; cited from earlier work
T2 sequence (P54687 1-386): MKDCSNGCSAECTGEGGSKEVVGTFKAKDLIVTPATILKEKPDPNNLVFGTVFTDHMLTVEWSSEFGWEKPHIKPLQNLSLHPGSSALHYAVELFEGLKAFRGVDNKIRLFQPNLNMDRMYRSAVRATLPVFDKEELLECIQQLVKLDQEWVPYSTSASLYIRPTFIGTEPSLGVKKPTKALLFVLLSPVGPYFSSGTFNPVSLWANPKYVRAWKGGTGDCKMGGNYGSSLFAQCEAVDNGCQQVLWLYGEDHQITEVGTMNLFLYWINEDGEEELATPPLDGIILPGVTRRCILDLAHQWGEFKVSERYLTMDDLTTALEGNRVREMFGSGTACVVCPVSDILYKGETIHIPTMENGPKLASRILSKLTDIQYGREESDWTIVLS

[5] = in water and in both basic and acidic aqueous solutions; cited from earlier work
normal HSPCs = test: Colony formation assay, normal HSPCs (LSK cells); format: cell-based, mouse; conditions: FIGS. 9E-F
Method: as §2

[6] = system: human AML cell lines (MV4-11, U937, HL60); test: Colony formation assay, human AML cell lines; format: cell-based; conditions: FIG. 11G-I
Method: as §2

K562 human BC-CML cells = test: Colony formation assay, K562 cells; format: cell-based; conditions: for leukemic colony formation: K562, Gabapentin in combination with Imatinib, 300 cells per well, scored on day 5, FIG. 14A
Method: BCAT1 inhibition by Gabapentin is shown in FIG. 14A, leukemic colony formation by human blast crisis CML was attenuated in combination with the tyrosine kinase inhibitor Imatinib. […] Three hundred cells were plated per well in triplicate, and colonies were scored on day 5 (error bars indicates s.e.m. *p<0.05, **p<0.01). Inhibition of leukemic colony formation by gabapentin (Gbp) and its structural analogs was also investigated (FIG. 14B). The colony-forming ability of K562 human CML cells treated with the indicated chemicals was investigated. One hundred fifty cells were plated per well in triplicate, and colonies were scored on day 14 (error bars indicates s.e.m. ***p<0.001 compared with the vehicle control).
as §2

With `NCC1(CC(=O)O)CCCCC1` [Gbp, 1-(aminomethyl)cyclohexane acetic acid] the clonal growth (primary human AML cells) was “effectively inhibited”, the clonogenic growth [1] was “dose-dependent impairment” and the colony size [1] was “formed smaller colonies”. The colony-forming ability [2] was “markedly inhibited”, the “inhibition of the transaminase activity of BCAT2” value (BCAT2) was “but not that of BCAT2” and the “phosphorylation of S6 kinase (pS6K)” value [3] was “significantly reduced”. The “intracellular concentrations of all three BCAAs” value [4] was “significantly reduced”, the “inhibition of the transaminase activity of BCAT1” value (BCAT1) was “specifically and competitively inhibit” and the solubility [5] was “freely soluble”. For the same compound, the “colony-forming ability of normal HSPCs” value (normal HSPCs) was “only minimally affected”, the clonal growth [6] was “effectively inhibited” and the leukemic colony formation (K562 human BC-CML cells) was “attenuated”. The colony-forming ability (K562 human BC-CML cells; K562 human BC-CML, FIG. 11A-D) was “markedly inhibited”.

With `Cc1ccc(NC(=O)c2ccc(CN3CCN(C)CC3)cc2)cc1Nc1nccc(-c2cccnc2)n1` [Imatinib] the leukemic colony formation (K562 human BC-CML cells) was “attenuated”.
